The values below come from ChEMBL document CHEMBL1123021, “3-Amino-beta-carboline derivatives and the benzodiazepine receptor. Synthesis of a selective antagonist of the sedative action of diazepam” (J Med Chem, 1985).

The target of the assay is GABA-A receptor; anion channel. Put plainly: Inhibition of [3H]- flunitrazepam binding to GABA-A Benzodiazepine receptor of rat cerebral cortex membranes. Format: cell membranes, Membrane.
One may read the IC50 as the concentration that gives 50% inhibition. High values mean weaker potency in that assay, low ones greater potency in that assay. For `CCOC(=O)Nc1cc2c3ccccc3nc-2c[nH]1`, the IC50 is 0.08 µM.
Then `Nc1cc2c(cn1)[nH]c1ccccc12`, with 25 µM.
Under `CC(=O)Nc1cc2c3ccccc3nc-2c[nH]1` stands 4 µM.
Then `CCOC(=O)c1cc2c(cn1)[nH]c1ccccc12`, with 0.002 µM.
`COC(=O)Nc1cc2c3ccccc3nc-2c[nH]1` came in with an IC50 of 0.071 µM.
Under `CS(=O)(=O)Nc1cc2c3ccccc3nc-2c[nH]1` stands 62 µM; under `O=C(Nc1cc2c3ccccc3nc-2c[nH]1)C(F)(F)F`, 6.3 µM.
On to `CCNc1cc2c3ccccc3nc-2c[nH]1`, for which the IC50 worked out at 0.46 µM.
Under `O=CNc1cc2c3ccccc3nc-2c[nH]1` stands 4.7 µM.
